# Laboratory results taken from the supplement of paper PMC10883282.
# Legend:
# Assay in all cases: standardised AUC of viability dose-response curve (72 h) (fraction (0-1)); higher = less growth inhibition (more resistant)
# HT1080 = system: HT1080
# How it was run: (§1)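 Sarcoma cell lines in 384-well plates were treated in triplicate for 72 h with 2.5 µl of a compound dilution series, made in 1:3 steps from 10 mM to 0.0002 mM on the compound plate. ATPLite viability was scaled from 1 (full) to 0 (none) and fitted per drug and cell line with a four-parameter log-logistic model. The values are standardised areas under the dose-response curve in log-dose space, from a modified drexplorer computeAUC. On that scale, 1 means no response and 0 means full response.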
# SW872 = system: SW872
# How it was run: as §1
# G401 = system: G401
# How it was run: as §1
# SW684 = system: SW684
# How it was run: as §1
# RD-ES = system: RD-ES
# How it was run: as §1
# SK-LMS-1 = system: SK-LMS-1
# How it was run: as §1
# SW982 = system: SW982
# How it was run: as §1
# KHOS-NP = system: KHOS-NP
# How it was run: as §1
# VA-ES-BJ = system: VA-ES-BJ
# How it was run: as §1
# A204 = system: A204
# How it was run: as §1
# HS729 = system: HS729
# How it was run: as §1
# MES-SA = system: MES-SA
# How it was run: as §1
# SW1353 = system: SW1353
# How it was run: as §1
# RD = system: RD
# How it was run: as §1
# SYO-1 = system: SYO-1
# How it was run: as §1
# KHOS-240S = system: KHOS-240S
# How it was run: as §1
# SK-ES-1 = system: SK-ES-1
# How it was run: as §1
Structure (SMILES),standardised AUC (HT1080),standardised AUC (SW872),standardised AUC (G401),standardised AUC (SW684),standardised AUC (RD-ES),standardised AUC (SK-LMS-1),standardised AUC (SW982),standardised AUC (KHOS-NP),standardised AUC (VA-ES-BJ),standardised AUC (A204),standardised AUC (HS729),standardised AUC (MES-SA),standardised AUC (SW1353),standardised AUC (RD),standardised AUC (SYO-1),standardised AUC (KHOS-240S),standardised AUC (SK-ES-1)
CC#CC(=O)N1CCC[C@H]1c1nc(-c2ccc(C(=O)Nc3ccccn3)cc2)c2c(N)nccn12 [ACALABRUTINIB],0.998,0.992,0.992,0.996,0.998,0.996,0.98,1,1,0.985,0.995,0.996,0.963,0.976,0.989,0.986,0.993
N#CC1(c2ccc(NC(=O)c3cccnc3NCc3ccncc3)cc2)CCCC1 [APATINIB],0.991,0.98,0.956,0.987,0.98,0.982,0.998,0.968,1,0.821,0.942,0.972,0.965,0.996,0.893,0.966,0.988
O=C(Nc1ccc(OC(F)(F)Cl)cc1)c1cnc(N2CC[C@@H](O)C2)c(-c2cc[nH]n2)c1 [ASCIMINIB],0.969,0.997,0.989,0.987,0.965,0.957,0.987,0.962,0.996,0.947,0.985,0.975,1,0.994,0.94,0.983,0.979
CNC(=O)c1ccccc1Sc1ccc2c(/C=C/c3ccccn3)n[nH]c2c1 [AXITINIB],0.963,0.859,0.857,0.954,0.926,0.975,0.887,0.93,0.901,0.545,0.826,0.857,0.928,0.89,0.669,0.849,0.863
Cc1cc2c(F)c(Oc3ncnn4cc(OC[C@@H](C)O)c(C)c34)ccc2[nH]1 [BRIVANIB],0.996,1,0.994,1,0.996,0.985,0.995,0.995,1,0.973,0.989,0.985,0.999,0.991,0.955,0.996,0.987
CO[C@H]1C[C@@H]2CC[C@@H](C)[C@@](O)(O2)C(=O)C(=O)N2CCCC[C@H]2C(=O)O[C@H]([C@H](C)C[C@@H]2CC[C@@H](OCCO)[C@H](OC)C2)CC(=O)[C@H](C)/C=C(\C)[C@@H](O)[C@@H](OC)C(=O)[C@H](C)C[C@H](C)/C=C/C=C/C=C/1C [CERTICAN],0.962,0.688,0.849,0.841,0.76,0.645,0.728,0.971,0.604,0.633,0.926,0.548,0.835,0.765,0.885,0.819,0.684
CC1(COc2ccc3c(c2)ncn3-c2ccc3cccc(N4CCC(N)CC4)c3n2)COC1 [CRENOLANIB],0.93,0.93,0.956,0.969,0.898,0.931,0.853,0.886,0.891,0.653,0.994,0.903,0.917,0.942,0.804,0.887,0.823
CC(C)(C)c1nc(-c2cccc(NS(=O)(=O)c3c(F)cccc3F)c2F)c(-c2ccnc(N)n2)s1 [DABRAFENIB],0.924,0.586,0.921,0.97,0.854,0.779,0.723,0.863,0.876,0.881,0.853,0.866,0.925,0.941,0.946,0.96,0.812
CCc1cnn2c(NCc3ccc[n+]([O-])c3)cc(N3CCCC[C@H]3CCO)nc12 [DINACICLIB],0.525,0.6,0.439,0.798,0.419,0.598,0.546,0.509,0.498,0.497,0.64,0.398,0.551,0.484,0.519,0.51,0.378
C[C@H](Nc1ncnc2nc[nH]c12)c1cc2cccc(Cl)c2c(=O)n1-c1ccccc1 [DUVELISIB],0.996,0.869,0.912,0.666,0.915,0.834,0.915,0.985,0.884,0.864,0.902,0.901,0.879,0.941,0.921,0.946,0.917
